Test results taken from patent publication US10780094B2, “Use of carbonic anhydrase inhibitors for treatment of neurological and psychiatric disorders” (New York University, priority 2016, dated 2020).

Assays:
Assay type in all cases: cell-based, human
SH-SY5Y cells [1] = assay: Aβ-induced mitochondrial Cytochrome C release
Method: (§1) Both SH-SY5Y cells and Glioma cells were plated on glass chamber slides (Thermo Fisher Scientific, Rochester, N.Y.). Slides were pre-coated with poly-D-lysine for SH-SY5Y cells. After seeding, cells were allowed to attach for 1 day prior to treatment with Aβ in the presence or absence of MTZ for 24 hours. Cells were then washed with PBS, fixed with 4% paraformaldehyde (10 min, RT) and blocked for 1 hour with 20 mg/ml BSA in PBS containing 0.3% Triton X-100 (PBST). Slides were further incubated with mouse monoclonal anti-CytC antibody (BD Biosciences; 1:200 in PBST containing 5 mg/ml BSA; 2 h, RT) followed by Alexa Fluor 488-conjugated anti-mouse IgG (Life Technologies, Grand Island, N.Y.) 1:200 in PBST with 5 mg/ml BSA for 1 h at RT, as previously described (Fossati et al., 2013). Fluorescence signals were visualized in a Zeiss LSM 510 laser scanning confocal/Confocor2 microscope using a 40×DIC oil immersion objective and LSM 510 software; acquired images were imported into ImageJ (National Institute of Health; http://rsbweb.nih.gov/ij/).
(§2) Subcellular distribution of CytC in amyloid-challenged SH-SY5Y and glioma cells was determined in mitochondrial and cytoplasmic protein extracts prepared using Mitochondria Isolation Kit (MITOISO2, Sigma) following the manufacturer's specifications. Briefly, after amyloid challenge in the presence and absence of Methazolamide, as above, cells were collected by trypsinization, resuspended in 10 mM HEPES, pH 7.5, containing 200 mM mannitol, 70 mM sucrose, 1 mM EGTA added of Protease Inhibitor Cocktail, and homogenized with the aid of a Dounce glass homogenizer. Cell homogenates were centrifuged to remove unbroken cells and nuclei (600×g, 5 min, 4° C.) and supernatants further centrifuged at 11,000×g (5 min, 4° C.) to subfractionate mitochondria. Supernatants, representing the cytosolic fractions as well as mitochondrial fractions were analyzed by CytC ELISA and WB.
(§3) The concentration of CytC in cytosolic and mitochondrial fractions was quantitated by solid phase sandwich ELISA (Quantikine ELISA, human Cytochrome C Immunoassay, R&D Systems) as described by the manufacturer. Prior to the assay, fractions containing cytoplasmic proteins were concentrated on Vivaspin 500 centrifugal concentrators (GE HealthCare, molecular weight cut off 5000), mitochondrial pellets were resuspended in Cell Lysis Buffer provided with the kit, and total protein of the respective fractions was evaluated by BCA protein assay (Thermo Fisher Scientific/Pierce). […] After washing away unbound proteins, wells were further incubated with an HRP-linked monoclonal antibody anti-human CytC, color developed with tetramethylbenzinine peroxidase substrate, and evaluated through quantitation of the Absorbance at 450 nm. […]

Glioma cells = assay: Aβ-induced mitochondrial Cytochrome C release
Method: as §1, §2, §3

SH-SY5Y cells [2] = assay: Cellular ROS (CellROX, DCFDA); settings: Aβ42 in the presence or absence of MTZ; 24 hours
Method: For the last 30 minutes, the cells were incubated in the experimental medium at 37° C. with 5 μM CellROX Deep Red (Life Technologies) and 1 μg/ml Hoechst Stain (Immunochemistry Technologies, Bloomington, Minn.), as described by the manufacturer, followed by washes. Fluorescence was measured using a FlexStation 3 Multi-Mode Microplate Reader (Molecular Devices, Sunnyvale, Calif.).
10.000 cells of either SH-SY5Y or D3 cells were plated on 96-wells plates. The day after, cells were treated with the peptides and/or the drugs for the established experimental times. CellROX reagent was then added, directly, to the growing media, at a final concentration of 5 μM. 10 μg/mL of Hoescht 333258 was also added to the medium containing the CellROX reagent, in order to dye cell nuclei. Cells were incubated with both CellROX and Hoescht 333258, at 37° C., for 30 min., just before the ending time-point of the treatment. After 30 min., the medium was removed and cells were washed once in PBS 1× at room temperature. […]
Cells were plated on 96-wells microplate fluorescence microtiter (ThermoFisher, Waltham, Mass., US), and treated with peptides and/or drugs on phenol red free medium, with no serum in the case of the SH-SY5Y cells and 1% serum on the D3. […] Fluorescence was measured using a FlexStation (Molecular devices, Sunnyvalem Calif., US).

[3] = 100 μM MTZ together with Aβ42 10 μM, 24 hours
[4] = MTZ 100 and 300 μM, Aβ42 10 μM, 24 h

CC(=O)/N=c1/sc(S(N)(=O)=O)nn1C [MTZ, methazolamide]
release of CytC (immunocytochemistry) (SH-SY5Y cells [1]; [3]): prevented
release of CytC by ELISA and Western blot in mitochondrial and cytosolic fractions (SH-SY5Y cells [1]; [4]): inhibition
release of CytC (immunocytochemistry) (Glioma cells; [3]): prevented
release of CytC by ELISA and Western blot in mitochondrial and cytosolic fractions (Glioma cells; [4]): inhibition
levels of cellular ROS (CellROX) (SH-SY5Y cells [2]): did not significantly change
